In US12545640B2, “Substituted 6,7-dihydro-5H-benzo[7]annulene compounds, processes for their preparation and therapeutic uses thereof” (SANOFI, priority 2019, dated 2026):

Molecular target: T1, ERα (Homo sapiens, UniProt P03372)
T1 construct: host or cells: MCF7 cells
T1 sequence (P03372 1-595): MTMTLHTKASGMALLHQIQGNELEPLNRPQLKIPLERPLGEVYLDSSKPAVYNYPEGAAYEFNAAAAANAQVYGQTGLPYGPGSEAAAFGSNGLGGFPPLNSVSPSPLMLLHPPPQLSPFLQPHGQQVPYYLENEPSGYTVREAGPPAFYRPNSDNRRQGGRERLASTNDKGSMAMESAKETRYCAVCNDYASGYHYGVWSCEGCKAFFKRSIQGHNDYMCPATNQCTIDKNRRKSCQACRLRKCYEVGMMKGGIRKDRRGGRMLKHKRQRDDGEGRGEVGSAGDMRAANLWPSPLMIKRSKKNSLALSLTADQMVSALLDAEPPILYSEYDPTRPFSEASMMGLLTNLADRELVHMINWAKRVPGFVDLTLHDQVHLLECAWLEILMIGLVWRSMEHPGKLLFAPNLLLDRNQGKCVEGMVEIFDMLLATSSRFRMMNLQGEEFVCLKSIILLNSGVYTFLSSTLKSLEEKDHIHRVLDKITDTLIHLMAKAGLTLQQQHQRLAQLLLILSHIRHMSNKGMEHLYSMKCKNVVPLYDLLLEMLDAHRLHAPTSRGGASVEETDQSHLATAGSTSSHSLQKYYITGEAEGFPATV
Assay: Estrogen receptor degradation activity: breast cancer cell ERα in cell western assay (MCF7 cells)
Type: cell-based
Details: 4 hours, final concentrations ranging from 0.3-0.0000018 μM, relative to fulvestrant 0.1 μM positive control
Description: Test: Estrogen Receptor Degradation Activity
Said test involves measuring the in vitro degradation activity of the compounds of the invention.
The measurements of the degradation activities were made using a breast cancer cell ERα in cell western assay as described hereunder.
MCF7 cells (ATCC) were seeded in 384 wells microplate (collagen coated) at a concentration of 10000 cells/30 μL, per well in red phenol free MEM alpha medium (invitrogen) containing 5% charcoal dextran striped FBS. The following day, 9 points serial 1:5 dilution of each compound was added to the cells in 2.5 μL at final concentrations ranging either from 3-0.000018 μM (column «% Degradation at 3 μM in table 2) or from 0.3-0.0000018 μM (column «% Degradation at 0.3 μM in table 2), or 0.1 μM for fulvestrant (using as positive control). At 4 hours post compound addition the cells were fixed by adding 25 μL of formalin (final concentration 5% formalin containing 0.1% triton) for 10 minutes at room temperature and then washed twice with PBS. Then, 50 μL of LI-COR blocking buffer containing 0.1% Triton was added to plate for 30 minutes at room temperature. LI-COR blocking buffer was removed and cells were incubated overnight at cold room with 50 μL anti-ER rabbit monoclonal antibody (Thermo scientific MA1-39540) diluted at 1:1000 in LI-COR blocking buffer containing 0.1% tween-20. Wells which were treated with blocking buffer but no antibody were used as background control. Wells were washed twice with PBS (0.1% tween-20) and incubated at 37° C. for 60 minutes in LI-COR (0.1% tween-20) containing goat anti-rabbit antibody Alexa 488 (1:1000) and Syto-64 a DNA dye ([…]). Cells were then washed 3 times in PBS and scanned in ACUMEN explorer (TTP-Labtech). Integrated intensities in the green fluorescence and red fluorescence were measured to determine the levels of ERα and DNA respectively.

In order of rising “% Degradation At 0.3 μM” value:
1. O=C(Nc1ccc2c(c1)CCCC(c1ccc(Cl)cc1Cl)=C2c1ccc(O[C@H]2CCN(CCCF)C2)cc1)C1(O)CC1.O=CO [Example 84, (S)—N-(8-(2,4-dichlorophenyl)-9-(4-((1-(3-fluoropropyl)pyrrolidin-3-yl)oxy)phenyl)-6,7-dihydro-5H-benzo[7]annulen-3-yl)-1-hydroxycyclopropane-1-carboxamide formate]  71%
2. O=C(Nc1ccc2c(c1)CCCC(c1ccc(Cl)cc1Cl)=C2c1ccc(O[C@H]2CCN(CCCF)C2)cc1)C1CC1(F)F (stereo partly drawn) [Example 87, N-(8-(2,4-dichlorophenyl)-9-(4-(((S)-1-(3-fluoropropyl)pyrrolidin-3-yl)oxy)phenyl)-6,7-dihydro-5H-benzo[7]annulen-3-yl)-2,2-difluorocyclopropane-1-carboxamide]  73%
3. CCOC(=O)C(=O)Nc1ccc2c(c1)CCCC(c1ccc(Cl)cc1Cl)=C2c1ccc(O[C@H]2CCN(CCCF)C2)cc1 [Example 76, ethyl (S)-2-((8-(2,4-dichlorophenyl)-9-(4-((1-(3-fluoropropyl)pyrrolidin-3-yl)oxy)phenyl)-6,7-dihydro-5H-benzo[7]annulen-3-yl)amino)-2-oxoacetate]  75%
4. O=[N+]([O-])c1cccc(-c2ccc3c(c2)CCCC(c2cccc(F)c2Cl)=C3c2ccc(O[C@H]3CCN(CCCF)C3)cc2)c1 [Example 96, (S)-3-(4-(8-(2-chloro-3-fluorophenyl)-3-(3-nitrophenyl)-6,7-dihydro-5H-benzo[7]annulen-9-yl)phenoxy)-1-(3-fluoropropyl)pyrrolidine]  76%
5. CCOc1ccc(C2=C(c3ccc(O[C@H]4CCN(CCCF)C4)cc3)c3ccc(C(N)=O)cc3CCC2)c(F)n1 [Example 79, (S)-8-(6-ethoxy-2-fluoropyridin-3-yl)-9-(4-((1-(3-fluoropropyl)pyrrolidin-3-yl)oxy)phenyl)-6,7-dihydro-5H-benzo[7]annulene-3-carboxamide]  91%

Same assay, conditions: 4 hours, final concentrations ranging from 3-0.000018 μM, relative to fulvestrant 0.1 μM positive control

In order of falling “% Degradation At 3 μM” value:
1. FCCCN1CC[C@H](Oc2ccc(C3=C(c4ccc(Cl)cc4Cl)CCCc4cc(-c5n[nH]c(=S)o5)ccc43)cc2)C1 [Example 45, (S)-5-(8-(2,4-dichlorophenyl)-9-(4-((1-(3-fluoropropyl)pyrrolidin-3-yl)oxy)phenyl)-6,7-dihydro-5H-benzo[7]annulen-3-yl)-1,3,4-oxadiazole-2(3H)-thione]  96%
2. O=C1NC(=O)C(c2ccc3c(c2)CCCC(c2ccc(Cl)cc2Cl)=C3c2ccc(O[C@H]3CCN(CCCF)C3)cc2)N1 (stereo partly drawn) [Example 43, 5-(8-(2,4-dichlorophenyl)-9-(4-(((S)-1-(3-fluoropropyl)pyrrolidin-3-yl)oxy)phenyl)-6,7-dihydro-5H-benzo[7]annulen-3-yl)imidazolidine-2,4-dione]  95%
3. N=C(NO)c1ccc2c(c1)CCCC(c1ccc(Cl)cc1Cl)=C2c1ccc(O[C@H]2CCN(CCCF)C2)cc1 [Example 26, (S)-8-(2,4-dichlorophenyl)-9-(4-((1-(3-fluoropropyl)pyrrolidin-3-yl)oxy)phenyl)-N-hydroxy-6,7-dihydro-5H-benzo[7]annulene-3-carboximidamide]  90%
4. NC(=O)NNC(=O)c1ccc2c(c1)CCCC(c1ccc(Cl)cc1Cl)=C2c1ccc(O[C@H]2CCN(CCCF)C2)cc1 [Example 14, (S)-2-(8-(2,4-dichlorophenyl)-9-(4-((1-(3-fluoropropyl)pyrrolidin-3-yl)oxy)phenyl)-6,7-dihydro-5H-benzo[7]annulene-3-carbonyl)hydrazine-1-carboxamide]  90%
5. COC(=O)c1ccc(-c2ccc3c(c2)CCCC(c2ccc(Cl)cc2Cl)=C3c2ccc(O[C@H]3CCN(CCCF)C3)cc2)cc1 [Example 56, Methyl (S)-4-(8-(2,4-dichlorophenyl)-9-(4-((1-(3-fluoropropyl)pyrrolidin-3-yl)oxy)phenyl)-6,7-dihydro-5H-benzo[7]annulen-3-yl)benzoate]  89%
6. NNC(=O)c1ccc2c(c1)CCCC(c1ccc(Cl)cc1Cl)=C2c1ccc(O[C@H]2CCN(CCCF)C2)cc1 [Example 6, (S)-8-(2,4-dichlorophenyl)-9-(4-((1-(3-fluoropropyl)pyrrolidin-3-yl)oxy)phenyl)-6,7-dihydro-5H-benzo[7]annulene-3-carbohydrazide]  88%
7. COC(=O)c1cccc(-c2ccc3c(c2)CCCC(c2ccc(Cl)cc2Cl)=C3c2ccc(O[C@H]3CCN(CCCF)C3)cc2)c1 [Example 57, Methyl (S)-3-(8-(2,4-dichlorophenyl)-9-(4-((1-(3-fluoropropyl)pyrrolidin-3-yl)oxy)phenyl)-6,7-dihydro-5H-benzo[7]annulen-3-yl)benzoate]  87%
8. O=C(O)/C=C/c1ccc2c(c1)CCCC(c1ccc(Cl)cc1Cl)=C2c1ccc(O[C@H]2CCN(CCCF)C2)cc1 [Example 20, (S,E)-3-(8-(2,4-dichlorophenyl)-9-(4-((1-(3-fluoropropyl)pyrrolidin-3-yl)oxy)phenyl)-6,7-dihydro-5H-benzo[7]annulen-3-yl)acrylic acid]  85%
9. FCCCN1CC[C@H](Oc2ccc(C3=C(c4ccc(Cl)cc4Cl)CCCc4cc(-c5nncs5)ccc43)cc2)C1 [Example 9, (S)-2-(8-(2,4-dichlorophenyl)-9-(4-((1-(3-fluoropropyl)pyrrolidin-3-yl)oxy)phenyl)-6,7-dihydro-5H-benzo[7]annulen-3-yl)-1,3,4-thiadiazole]  79%
10. O=C1CC(c2ccc3c(c2)CCCC(c2ccc(Cl)cc2Cl)=C3c2ccc(O[C@H]3CCN(CCCF)C3)cc2)=NO1 [Example 13, (S)-3-(8-(2,4-dichlorophenyl)-9-(4-((1-(3-fluoropropyl)pyrrolidin-3-yl)oxy)phenyl)-6,7-dihydro-5H-benzo[7]annulen-3-yl)isoxazol-5(4H)-one]  76%
11. O=C(Nc1ccc2c(c1)CCCC(c1ccc(Cl)cc1Cl)=C2c1ccc(O[C@H]2CCN(CCCF)C2)cc1)C1CC1 [Example 60, (S)—N-(8-(2,4-dichlorophenyl)-9-(4-((1-(3-fluoropropyl)pyrrolidin-3-yl)oxy)phenyl)-6,7-dihydro-5H-benzo[7]annulen-3-yl)cyclopropanecarboxamide]  74%
12. FCCCN1CC[C@H](Oc2ccc(C3=C(c4ccc(OC(F)(F)F)cc4)CCCc4cc(OC(F)F)ccc43)cc2)C1 [Example 24, (S)-3-(4-(3-(difluoromethoxy)-8-(4-(trifluoromethoxy)phenyl)-6,7-dihydro-5H-benzo[7]annulen-9-yl)phenoxy)-1-(3-fluoropropyl)pyrrolidine]  74%
13. O=S(=O)(Nc1ccc2c(c1)CCCC(c1ccc(Cl)cc1Cl)=C2c1ccc(O[C@H]2CCN(CCCF)C2)cc1)C(F)(F)F [Example 35, (S)—N-(8-(2,4-dichlorophenyl)-9-(4-((1-(3-fluoropropyl)pyrrolidin-3-yl)oxy)phenyl)-6,7-dihydro-5H-benzo[7]annulen-3-yl)-1,1,1-trifluoromethanesulfonamide]  52%
14. CON(C)C(=O)c1ccc2c(c1)CCCC(c1ccc(Cl)cc1Cl)=C2c1ccc(O[C@H]2CCN(CCCF)C2)cc1 [Example 44, (S)-8-(2,4-dichlorophenyl)-9-(4-((1-(3-fluoropropyl)pyrrolidin-3-yl)oxy)phenyl)-N-methoxy-N-methyl-6,7-dihydro-5H-benzo[7]annulene-3-carboxamide]  50%
